# Measured values: US20100099676A1 (SHIONOGI & CO., LTD., priority 2006, published 2010)
# Assays:
# Assay in all cases: Enzyme inhibiting activity of MMPs, fluorogenic peptide substrate
# Type in all cases: biochemical
# MMP-13 = target: T1, MMP-13 (Homo sapiens, UniProt P45452); conditions: APMA-activated proenzyme; substrate MOCAc-Pro-Leu-Gly-Leu-A2Pr(DNP)-Ala-Arg-NH2, fluorescent intensity; read-out: IC50 MMP-13
# T1 construct: purchased Calbiochem (EMD/MERCK Biosciences)
# Method: (§1) Various human MMPs (MMP-2, MMP-9 and MMP-13) were purchased from Calbiochem (EMD/MERCK Biosciences).
# Since the purchased MMP-13 was Proenzyme, the activated one was used, which was incubated at 37° C. for 2 hours after the successive addition of an assay buffer (containing 50 mM Tris-HCl (pH7.6), 0.3 M NaCl, 10 mM CaCl2, 0.005% Brij35) and APMA (final concentration 1 mM) to the enzyme solution.
# (§2) The enzyme activity of MMPs was measured according to the method described in C. Graham Knight, Frances Willenbrock and Gillian Murphy: A novel coumarin-labelled peptide for sensitive continuous assays of the matrix metalloproteinases: FEBS LETT., 296, (1992), 263-266. As a substrate, MOCAc-Pro-Leu-Gly-Leu-A2Pr(DNP)- Ala-Arg-NH2 (Peptide Institute, Inc. Osaka, Japan) was used, and the following four assays are performed per compound (inhibitor) for measuring the inhibiting activity.
# (§3) (A) Substrate (synthetic substrate), enzyme (MMPs), inhibitor
# (§4) (B) Substrate (synthetic substrate), inhibitor
# (§5) (C) Substrate (synthetic substrate), enzyme (MMPs)
# (§6) (D) Substrate (synthetic substrate)
# (§7) In each assay, the fluorescent intensity was measured, and inhibition (%) was calculated by the following equation.
# (§8) Inhibition (%)=[I−(A−B)/(C−D)]×100
# (§9) IC50 indicates a concentration at which inhibition (%) is 50%.
# MMP-9 = target: T2, MMP-9 (Homo sapiens, UniProt P14780); conditions: substrate MOCAc-Pro-Leu-Gly-Leu-A2Pr(DNP)-Ala-Arg-NH2, fluorescent intensity
# T2 construct: purchased Calbiochem (EMD/MERCK Biosciences)
# Method: as §1, §2, §3, §4, §5, §6, §7, §8, §9
# MMP-2 = target: T3, MMP-2 (Homo sapiens, UniProt P08253); conditions: substrate MOCAc-Pro-Leu-Gly-Leu-A2Pr(DNP)-Ala-Arg-NH2, fluorescent intensity
# T3 construct: purchased Calbiochem (EMD/MERCK Biosciences)
# T3 sequence (P08253 110-660): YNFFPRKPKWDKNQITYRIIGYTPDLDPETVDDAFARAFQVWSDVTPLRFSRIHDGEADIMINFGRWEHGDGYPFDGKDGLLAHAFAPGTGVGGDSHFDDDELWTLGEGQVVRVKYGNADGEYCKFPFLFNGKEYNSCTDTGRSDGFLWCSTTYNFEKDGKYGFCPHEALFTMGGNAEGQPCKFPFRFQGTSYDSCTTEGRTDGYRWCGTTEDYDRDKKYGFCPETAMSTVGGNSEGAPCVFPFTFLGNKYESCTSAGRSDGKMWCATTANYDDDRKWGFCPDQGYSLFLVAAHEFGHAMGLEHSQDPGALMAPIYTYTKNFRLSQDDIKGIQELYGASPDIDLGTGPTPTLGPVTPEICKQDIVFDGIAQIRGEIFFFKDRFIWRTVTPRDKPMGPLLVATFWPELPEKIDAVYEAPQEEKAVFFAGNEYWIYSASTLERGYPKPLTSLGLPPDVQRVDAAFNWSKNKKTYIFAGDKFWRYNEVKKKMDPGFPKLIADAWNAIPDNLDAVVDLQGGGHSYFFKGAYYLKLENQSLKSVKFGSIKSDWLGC
# Method: as §1, §2, §3, §4, §5, §6, §7, §8, §9
# T2 sequence (P14780 94-707): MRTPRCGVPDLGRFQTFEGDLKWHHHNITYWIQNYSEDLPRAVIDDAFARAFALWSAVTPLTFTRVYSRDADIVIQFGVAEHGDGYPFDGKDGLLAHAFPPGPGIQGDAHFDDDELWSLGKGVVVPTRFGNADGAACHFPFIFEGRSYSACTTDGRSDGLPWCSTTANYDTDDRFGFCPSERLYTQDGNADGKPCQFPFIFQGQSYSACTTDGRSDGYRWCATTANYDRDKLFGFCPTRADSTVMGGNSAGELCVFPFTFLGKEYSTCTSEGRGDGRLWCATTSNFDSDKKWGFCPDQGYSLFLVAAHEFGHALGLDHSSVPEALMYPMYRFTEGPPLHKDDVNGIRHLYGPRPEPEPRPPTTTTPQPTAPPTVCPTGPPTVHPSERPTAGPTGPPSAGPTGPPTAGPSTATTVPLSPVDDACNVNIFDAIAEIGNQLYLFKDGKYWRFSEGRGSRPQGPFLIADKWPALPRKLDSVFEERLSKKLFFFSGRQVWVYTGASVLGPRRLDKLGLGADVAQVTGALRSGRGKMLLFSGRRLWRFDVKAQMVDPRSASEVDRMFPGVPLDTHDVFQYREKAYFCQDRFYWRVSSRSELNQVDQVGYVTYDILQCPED
Compound,IC50 (MMP-13) [µM],IC50 (MMP-9) [µM],IC50 (MMP-2) [µM]
"C[C@@H](NS(=O)(=O)N1CCN(c2ccc(C#Cc3nc(-c4cccc(OCc5ccccc5)c4)cs3)cc2)CC1)C(=O)O [Compound V-11, (R)-2-(4-{4-[4-(3-benzyloxyphenyl)-thiazol-2-ylethynyl]-phenyl}-piperazine-1-sulfonylamino)-proponic acid]",0.014,> 10,1 to 10
"COc1ccc(C#Cc2ccc(N3CCN(S(=O)(=O)N[C@H](C)C(=O)O)CC3)cc2)cc1-c1ncc(CC(=O)NCc2ccccc2)o1 [Compound V-12, (R)-2-[4-(4-{3-[5-(benzylcarbamoylmethyl)-oxazol-2-yl]-4-methoxyphenylethynyl}-phenyl)-piperazine-1-sulfonylamino]-proponic acid]",0.004,> 10,1 to 10
"C[C@@H](NS(=O)(=O)N1CCN(c2ccc(C#Cc3nc(-c4cccc(C(=O)NCc5ccccc5)c4)cs3)cc2)CC1)C(=O)O [Compound V-14, (R)-2-(4-{4-[4-(3-benzylcarbamoylphenyl)-thiazol-2-ylethynyl]-phenyl}-piperazine-1-sulfonylamino)-proponic acid]",0.006,> 10,1 to 10
"COc1ccc(F)cc1-c1csc(C#Cc2ccc(N3CCN(S(=O)(=O)N[C@H](C)C(=O)O)CC3)cc2)n1 [Compound V-15, (R)-2-(4-{4-[4-(5-fluoro-2-methoxyphenyl)-thiazol-2-ylethynyl]-phenyl}-piperazine-1-sulfonylamino)-proponic acid]",0.013,> 10,1 to 10
"COCCOc1ccc(C#Cc2ccc(N3CCN(S(=O)(=O)N[C@H](C)C(=O)O)CC3)cc2)cc1-c1ncc(CC(=O)NCc2ccccc2)o1 [Compound V-19, (R)-2-(4-{4-[3-[5-(benzylcarbamoylmethyl)-oxazol-2-yl]-4-(2-methoxyethoxy)-phenylethynyl]-phenyl}-piperazine-1-sulfonylamino)-proponic acid]",0.008,> 10,1 to 10
"C[C@@H](NS(=O)(=O)N1CCN(c2ccc(C#Cc3nc(-c4cccc(OCc5ccc(S(C)(=O)=O)cc5)c4)cs3)cc2)CC1)C(=O)O [Compound V-20, (R)-2-[4-(4-{4-[3-(4-methanesulfonylbenzyloxy)-phenyl]-thiazol-2-ylethynyl}-phenyl)-piperazine-1-sulfonylamino]-proponic acid]",0.001,> 10,1 to 10
"COC(=O)c1ccc(COc2cccc(-c3csc(C#Cc4ccc(N5CCN(S(=O)(=O)N[C@H](C)C(=O)O)CC5)cc4)n3)c2)cc1 [Compound V-22, 4-[3-(2-{4-[4-((R)-1-carboxyethylsulfamoyl)-piperazin-1-yl]-phenylethynyl}-thiazol-4-yl)-phenoxymethyl]-benzoic acid methyl ester]",0.008,> 10,> 10
"CCc1cnc(-c2cc(C#Cc3ccc(N4CCN(S(=O)(=O)N[C@H](C)C(=O)O)CC4)cc3)ccc2OCCOC)o1 [Compound V-23, (R)-2-(4-{4-[3-(5-ethyloxazol-2-yl)-4-(2-methoxyethoxy)-phenylethynyl]-phenyl}-piperazine-1-sulfonylamino)-proponic acid]",0.004,> 10,1 to 10
"COCCOc1ccc(C#Cc2ccc(N3CCN(S(=O)(=O)N[C@@H](C(=O)O)C(C)C)CC3)cc2)cc1-c1ncc(CC(=O)NCc2ccccc2)o1 [Compound V-24, (R)-2-(4-{4-[3-[5-(benzylearbamoylmethyl)-oxazol-2-yl]-4-(2-methoxyethoxy)-phenylethynyl]-phenyl}-piperazine-1-sulfonylamino)-3-methylbutanoic acid]",0.023,> 10,> 10
"CCOc1ccc(C#Cc2ccc(N3CCN(S(=O)(=O)N[C@H](C)C(=O)O)CC3)cc2)cc1-c1ncc(CC)o1 [Compound V-25, (R)-2-(4-{4-[4-ethoxy-3-(5-ethyloxazol-2-yl)-phenylethynyl]-phenyl}-piperazine-1-sulfonylamino)-proponic acid]",0.009,> 10,1 to 10
"CCOc1ccc(C#Cc2ccc(N3CCN(S(=O)(=O)N[C@@H](C(=O)O)C(C)C)CC3)cc2)cc1-c1ncc(CC)o1 [Compound V-26, (R)-2-(4-{4-[4-ethoxy-3-(5-ethyloxazol-2-yl)-phenylethynyl]-phenyl}-piperazine-1-sulfonylamino)-3-methylbutanoic acid]",0.024,> 10,1 to 10
"CNC(=O)Cc1cnc(-c2cc(C#Cc3ccc(N4CCN(S(=O)(=O)N[C@@H](C(=O)O)C(C)C)CC4)cc3)ccc2OCCOC)o1 [Compound V-28, (R)-2-(4-{4-[4-(2-methoxyethoxy)-3-(5-methylcarbamoylmethyloxazol-2-yl)-phenylethynyl]-phenyl}-piperazine-1-sulfonylamino)-3-methylbutanoic acid]",0.016,> 10,1 to 10
"CC(C)[C@@H](NS(=O)(=O)N1CCN(c2ccc(C#Cc3ccnc(C(=O)NCc4ccc(C(=O)NCC#N)cc4)c3)cc2)CC1)C(=O)O [Compound V-30, (R)-2-[4-(4-{2-[4-(cyanomethylcarbamoyl)-benzylcarbamoyl]-pyridin-4-ylethynyl}-phenyl)-piperazine-1-sulfonylamino]-3-methylbutanoic acid]",0.001,> 10,1 to 10
"CC(C)[C@@H](NS(=O)(=O)N1CCN(c2ccc(C#Cc3ccnc(C(=O)NCc4ccc(C#N)cc4)c3)cc2)CC1)C(=O)O [Compound V-31, (R)-2-(4-{4-[2-(4-cyanobenzylcarbamoyl)-pyridin-4-ylethynyl]-phenyl}-piperazine-1-sulfonylamino)-3-methylbutanoic acid]",0.003,> 10,1 to 10
"CC(C)[C@@H](NS(=O)(=O)N1CCN(c2ccc(C#Cc3ccnc(C(=O)NCc4cccc(C#N)c4)c3)cc2)CC1)C(=O)O [Compound V-32, (R)-2-(4-{4-[2-(3-cyanobenzylcarbamoyl)-pyridin-4-ylethynyl]-phenyl}-piperazine-1-sulfonylamino)-3-methylbutanoic acid]",0.016,> 10,1 to 10
"CCC[C@H](NS(=O)(=O)N1CCN(c2ccc(C#Cc3ccnc(C(=O)NCc4ccc(OC)cc4)c3)cc2)CC1)C(=O)O [Compound V-33, (5)-2-(4-{4-[2-(4-methoxybenzylcarbamoyl)-pyridin-4-ylethynyl]-phenyl}-piperazine-1-sulfonylamino)-pentanoic acid]",0.003,> 10,1 to 10
"COc1ccc(CNC(=O)c2cc(C#Cc3ccc(N4CCN(S(=O)(=O)N[C@H](C(=O)O)C(C)C)CC4)cc3)ccn2)cc1 [Compound V-34, (5)-2-(4-{4-[2-(4-methoxybenzylcarbamoyl)-pyridin-4-ylethynyl]-phenyl}-piperazine-1-sulfonylamino)-3-methylbutanoic acid]",0.005,> 10,1 to 10
"COc1ccc(Cn2ccc3ccc(C#Cc4ccc(N5CCN(S(=O)(=O)N[C@H](C)C(=O)O)CC5)cc4)cc3c2=O)cc1 [Compound V-36, (R)-2-(4-{4-[2-(4-methoxybenzyl)-1-oxo-1,2-dihydroisoquinolin-7-ylethynyl]-phenyl}-piperazine-1-sulfonylamino)-proponic acid]",0.005,1 to 10,1 to 10
"COc1ccc(Cn2ccc3ccc(C#Cc4ccc(N5CCN(S(=O)(=O)N[C@H](C(=O)O)C(C)C)CC5)cc4)cc3c2=O)cc1 [Compound V-37, (S)-2-(4-{4-[2-(4-methoxybenzyl)-1-oxo-1,2-dihydroisoquinolin-7-ylethynyl]-phenyl}-piperazine-1-sulfonylamino)-3-methylbutanoic acid]",0.02,> 10,> 10
